Reference: patent publication US9005580B2, “Treatment of renal cell carcinoma” (priority 2010, dated 2015)

Experiments:
[1] = compared to BCNU; cited from earlier work
xenografts in nude mice = details: in some cases; cited from earlier work
human renal cancer cells = details: cells derived from a primary tumor or from metastatic tumor tissue; cited from earlier work
Sprague-Dawley rats = details: corresponding amounts of unconjugated Orellanine, within four days; cited from earlier work
[2] = test system: human renal cell carcinomas (SKRC-7, 786-0); format: cell-based

## O=NN(CCCl)C(=O)NCCO [HECNU, 1-(2-chloroethyl)-1-nitroso-3-(2-hydroxyethyl)urea]
[1]
  water solubility: improved water solubility

## Cc1cc(N(CCOS(C)(=O)=O)CCOS(C)(=O)=O)ccc1C=O [NSC-281612]
Xenografts in nude mice
  effect on tumor mass: apparently complete eradication of the tumor mass

## [O-][n+]1ccc(O)c(O)c1-c1c(O)c(O)cc[n+]1[O-] [Orellanine, 3,3′,4,4′-tetrahydroxy-2,2′-bipyridine-N,N′-dioxide]
Human renal cancer cells
  killing of renal cancer cells: kills them with great efficiency
Sprague-Dawley rats
  loss of GFR: almost total loss of GFR
[2]
  correlation between exposure concentration and fraction of cells that die: clear correlation
  delay between administration and onset of cell death: 48 h
